The results in this text go back to patent publication US20110053835A1, “ANTIMICROBIAL PEPTIDES DERIVED FROM CAP18” (OctoPlus Sciences B.V., priority 2004, published 2011).

One series relates to guinea pigs. The class given is in vivo, guinea pig. As for the experimental part: The skin was sutured closed and follow-up auditory testing was performed.
Auditory brainstem response (ABR) was performed prior to drug administration and directly after surgery and 3, 7, 14 and 22 days later, using a computer-based signal averaging system (Tucker-Davis Technology, Alucha, Fla., USA). Guinea pigs were anesthetized and an insert earphone was placed into the external ear canal. […] Ground electrodes were placed over the neck muscles. […] Stimulus intensities were measured and expressed as dB.

The subject of series [1] is Candida albicans ATCC 10231. As for the experimental part:
(§1) The in vitro antibacterial and antifungal activity of P60.4-Ac and LL-37 were determined as the minimum inhibitory concentrations (MIC) by a microdilution susceptibility test in 96-well microtiter plates, according to a modified version of R. Hancock's “Modified MIC method for cationic antimicrobial peptides” [13]. The antibacterial activity was tested on the reference strains Escherichia coli ATCC 8739, Pseudmonas aeruginosa ATCC 9027. The antifungal activity was evaluated on Candida albicans ATCC 10231 and Aspergillus niger ATCC 14406. The antimicrobial activity assay was conducted with different concentrations of P60.4Ac and LL-37 to compare their effects on the bacterial or fungal growth. Antibacterial activity was examined using log-phase cultured bacteria in Trypticase Soy Broth at 37° C. The cultures were diluted with 10 mM Sodium Phosphate buffer pH 7.4 to give approximately 5.0×10^6 CFU/ml. 10 μl of the diluted test strain was transferred to a 96-well plate and 100 μl of the different peptide concentrations was added to each well. The plates were incubated at 37° C. for 24 hours and are then scored for growth by visual inspection on a light box. They are then returned for incubation for a further 24 hours after which time they are re-evaluated for growth. The yeast strain C. albicans was prepared as described above. The filamentous fungi A. niger was used as a spore suspension, cultured on Sabourauds Dextrose Agar plates at 20-25° C. for 6-10 days or until adequate sporulation has occurred. The spores were harvested by scrapping and if necessary the concentration was adjusted to a final concentration of 5×10^6 CFU/ml.

Series [2] deals with Escherichia coli ATCC 8739. As to conditions: mean of three determinations. As for the experimental part: as §1
In a further series the test system is P. aeruginosa ATCC9027. As for the experimental part:
as §1

For series [3], the system named is Aspergillus niger ATCC 14406. As for the experimental part: as §1
For series [4], the system named is rabbits.
Experimental: (§2) For the skin and eye irritation tests, three rabbits were exposed to 0.5 ml phosphate buffered peptide solution (2 mg/ml), applied onto clipped skin for 4 hours using a semi-occlusive dressing. Observations were made 1, 24, 48, and 72 hours after exposure. Single samples of 0.1 ml of phosphate buffered (pH7.5) peptide solution (2 mg/ml) were instilled into one eye of each of three rabbits to perform an acute eye irritation/corrosion study. Observations were made 1, 24, 48, and 72 hours after instillation.
The test system of a further series is rats. The series is described as follows: Single and repeated dose intravenous systemic toxicity study. Type of series: in vivo, rat. On the procedure:
The systemic toxicity of P60.4Ac was assessed in a single and repeated dose toxicity study in rats. The peptide was administered daily intravenously in escalating doses. In this phase, the Maximum Tolerated Dose (MTD) was established. Repeated dose toxicity was also studied in the MTD phase. In the dose escalation phase, 9 rate were divided in three groups and received 0.4, 2 or 8 mg/kg/day for two days. Clinical signs were recorded twice daily on days of dosing and one day after dosing, body weights were recorded prior to the first dose and one day after dosing. In the MTD phase, 5 female and 5 male rats received 8 mg/kg/day for 5 following days. Clinical signs were recorded twice daily on days of dosing, body weight on day 1 and 6. Clinical laboratory investigations were performed prior to necropsy. Macroscopy was performed at termination of the MTD phase.

The subject of series [5] is rabbits. As to conditions: 0.5 ml peptide solution 2 mg/ml on clipped skin for 4 hours, semi-occlusive; observed 1-72 hours.
Experimental: as §2
Where [6] appears, read: intravenous, 8 mg/kg/day for 5 days.
The mark [7] stands for this setting: intravenous, 0.4, 2 or 8 mg/kg/day for two days.

Like-named read-outs stand apart in the source and are kept apart here. Marks after values point to notes of the source that are not given here. Bounds are passed on as bounds.

As for “Ac-IGKEFKRIVERIKRFLRELVRPLR-NH2 [Compound P60.4Ac]”, the ABR threshold change in the series with guinea pigs (P60.4-Ac 2 mg/ml in PBS, 22 days after surgery) is −7 dB; with guinea pigs (P60.4-Ac as formulation II, both animals, 22 days), 1 dB. Moreover, the MIC (commonly the smallest concentration in the dilution series that meets the test's criterion for growth inhibition) in series [1] (C. albicans ATCC10231, incubation 24 h) is 6 µM; in series [1] (C. albicans ATCC10231, incubation 48 h), 6^f μM; in series [2] (E. coli ATCC8739, incubation 24 h), 2 µM; in series [2] (E. coli ATCC8739, incubation 48 h) it was 3^c μM; with P. aeruginosa ATCC9027 (P. aeruginosa ATCC9027, incubation 24 h), 3 µM; against P. aeruginosa ATCC9027 (P. aeruginosa ATCC9027, incubation 48 h), 6^b μM. The MIC is 18 µM in series [3] (A. niger ATCC14406, incubation 24 h) and >18^e μM in series [3] (A. niger ATCC14406, incubation 48 h). The “time to complete resolution of conjunctival redness after instillation” value in the series with rabbits [4] (0.1 ml peptide solution 2 mg/ml into one eye) was ≤ 24 h. In the series with rabbits [4] (0.1 ml phosphate buffered (pH7.5) peptide solution 2 mg/ml into one eye), the “eye irritation finding after ophthalmic instillation” value is given as “redness of the conjunctivae”. Besides, in the series with rats (setting [6]), the “clinical signs, body weight, hematology, clinical biochemistry and macroscopic examination, MTD phase” value was “no clear peptide related findings”. For the same substance, the “mortality, MTD phase” value in the series with rats (setting [6]) was “no mortality occurred”. The “clinical signs and body weight, dose escalation phase” value with rats (setting [7]) is “no clear deviations”. For the same substance, the “mortality, dose escalation phase” value with rats (setting [7]) was “no mortality occurred”. Also, the skin irritation entry in the series with rabbits [5] is on record as “no skin irritation was detectable”.
